Reference: patent US20250144187A1, “COMBINATION OF HYDROLASES AND ANTI-MICROORGANISM DRUGS AND USES THEREOF” (CENTRE FOR EYE AND VISION RESEARCH LIMITED, priority 2023, published 2025)

Assays:
ARPE-19 cells = assay type: cell-based; conditions: human, 24 h
Procedure: 14) Toxicities analysis on lysozyme and cefdinir. Toxicities analysis of lysozyme and cefdinir were performed on ARPE-19 and 293T cells [Guo H et al., ACS Chem Biol 17, 2003-2009 (2022)]. Drugs at different concentrations were added into the plates, in which cells had 80% confluency. Those without any drug's treatment served as control group. Ater 24 hours culture at 37° C., survival cells were counted by using CCK-8 kit, 100% survival ratio (no toxicity) was defined as those had same number of survival cells in control group.

MRSA [1] = test: High-throughput screening of 4989 compounds with human lysozyme; assay type: cell-based, Staphylococcus aureus; conditions: for MRSA Inhibition ratio (%): compound 2.5 μM + 1 mg/ml lysozyme relative to compound only
Procedure: 1) High-throughput screening. […] Specifically, these compounds were added into bacterial suspensions (1×10^6 CFU/ml) in the […] microliter plate, in which each well contained 50 μl of lysogeny broth (LB) medium with or without 1 mg/ml lysozyme. LB medium in the absence of bacteria served as background group. Then, the real-time growth curves of MRSA were monitored per hour and for 24 hours. Experiments were performed with the biological replicates. Fly analyzing the absorbance 600 nm (OD600) of bacterial culture at the time point of 24-hour, the inhibition ratio (%) was calculated according to (ODcontrol−ODsample)/(ODcontrol−ODbackground)×100%. Here, the relative and apparent inhibition ratios were figured out by using the absorbance of bacterial suspension only containing compound and that without any drug treatment as ODcontrol, respectively. The relative and apparent inhibition ratios indicated the combination effect and potential toxicity of compound in combination effect. Synergy effect was defined as the relative inhibition ratio of ≥90%.

MRSA [2] = test: Time-killing curves, cefdinir/lysozyme; assay type: cell-based, Staphylococcus aureus; conditions: 0.5 mg/ml lysozyme + 0.5 μg/ml cefdinir, after 16 hours; reduced from the level of 10^10
Procedure: 3) Time-killing curves. According to standard method [Thappeta K R V et al., ACS Infect Dis 6, 1228-1237 (2020)], over-night cultured MRSA was diluted and aliquoted into new sterile 50 ml tubes at 1:1000 ratio. Then, the bacterial suspension was cultured in LB medium containing 0.5 or 2.0 μg/ml cefdinir, 0.5 mg/ml lysozyme or their combination at 37° C. with shaking at 250 rpm. Bacterial suspension without any drugs served as control group. To measure their kinetic time-killing curves, twenty micro liters of each culture was extracted at time intervals of 0, 2, 4, 6, 9 and 16 h for measurement of the OD600 and colony-forming units. Ten micro liters of each dilution was spotted on the LB-agar plates and incubated at 37° C. for 24 hours prior to enumeration. All assays were performed in triplicate.

MRSA [3] = test: ATP, NAD+/NADH and pyruvate levels, tedizolid phosphate/lysozyme; assay type: cell-based, Staphylococcus aureus; conditions: combination therapy for 1 hour
Procedure: 13) ATP, NAD^+/NADH and pyruvate levels. According to the described method [Liu. Y et al., Adv. Sci. 7, 1902227(2020)], mid-log-phase MRSA with the OD600 of 0.4 to 0.6 was treated with lysozyme, tedizolid phosphate or their combination at different concentrations. Those without any treatment served as control group. After 1 hour incubation at 37° C. all bacteria we collected and then washed by cold PBS for 3 times. […] Then, 75 μl of each supernatant was incubated 25 μl of reaction I, followed by continuous incubation with 125 μl of reaction II. By recording the absorbance at 520 mu, the pyruvate level in each sample was figured out according to the standard formula. The intensity in control group was defined as 100% and others were normalized.
Then, 20 si of each supernatant was added white 96-well plate pre-reactivated by 100 μl of ATP test solution (Beyotime Biotechnology, China), followed by luminometer measurement [Liu, Y et al., Adv. Sci 7, 1902227 (2020)]. To analyze the intracellular NAD^+ and NADH levels [Xue, C et al., Front. Pharmacol. 12, 600296 (2021)], each lysis supernatant was divided into two tubes. One tube was heated at 60° C. for 30 minutes in PCR machine to decompose NAD^+ if had. Then, this tube was further centrifuged at 18,000 g at 4° C. for 20 minutes to collect the supernatant. After that, 20 μl of supernatant from heated or unheated group was added white 96-well plate pre-reactivated by 90 μl/well of alcohol dehydrogenase solution (Beyotime Biotechnology, China) for 10 minutes incubation at 37° C. in the prevention of light, Next, 10 μl of staining solution (Beyotime Biotechnology, China) was added to react with product in previous reaction. After 30 minutes at 37° C. in the prevention of light, orange formazan was observed and then the absorbance at 450 nm was recorded. Intensities of those […] heat treatment indicated the levels of NADH+NAD^+ and NADH itself, respectively. Finally, according to the standard formula, the intracellular levels of NAD^+, NADH and their ratio were figured out. All results were expressed as average±SD. […]

MRSA and MRSE biofilm = test: Biofilm crystal violet assay, tedizolid phosphate/lysozyme; assay type: cell-based; conditions: tedizolid phosphate + 0.5 mg/ml lysozyme
Procedure: 4) Biofilm assays. According to previously described method [Thappeta, K. R. et al., ACS Infect. Dis. 6, 1228-1237(2020); Merritt, J. H. et al., Curr. Protoc. Microbiol. Chapter 1, Unit 1B.1 (2005); O'Toole, G. A. et al., J, Vis. Exp. 47, 2437 (2011)], biofilm was assessed by using an adherence assay on 96-well tissue culture plates. Briefly, tedizolid phosphate at final concentration of 0.3 μg/ml was added into bacterial suspensions (1×10^6 CFU/ml, in LB medium) in the absence or presence of 0.5 mg/ml lysozyme. LB medium with or without bacteria served as positive or negative control group, respectively. After overnight incubation at 37° C., the bacterial suspension was removed, and well was gently washed twice with sterile PBS to remove exclusively non-adherent bacteria. The adherent biofilm was fixed by using 95% methanol at 60° C. for 15 minutes. Then, biofilm was stained with 1% Crystal violet (100 μl/well) at 37° C. for 15 minutes, Ater that, all wells were gently washed with PBS to remove redundant crystal violet. Finally, the dye was solubilized with […] of 95% ethanol per well at 37° C. for 3 minutes. The optical density at 590 nm of solution in each well was measured using a micro-plate reader. Herein, strong biofilm, weak biofilm and no biofilm were defined as “[…]”, “ODnegative control<ODsample<2ODnegative control” and “ODsample≤ODnegative control”. […]

| Compound | safe concentration without any effect on cell survival ratios (ARPE-19 cells) [µg/mL] | MRSA Combination (MRSA [1]; OD600 at 24-hour, compound 2.5 μM + 1 mg/ml lysozyme) | MRSA Drug only (MRSA [1]; OD600 at 24-hour, compound 2.5 μM without lysozyme) | MRSA Inhibition ratio (%) (MRSA [1]) | MRSA Inhibition ratio (%) (MRSA [1]; listed as Ce ? dinir) | bacterial load (MRSA [2]) | decrease in the level of pyruvate (MRSA [3]) [%] | level of ATP (MRSA [3]) | ratio of NAD+/NADH (MRSA [3]; increased from 8.84±1.89) | biofilm formation (absorbance at 590 nm), pre-biofilm stage (MRSA and MRSE biofilm) |
| --- | --- | --- | --- | --- | --- | --- | --- | --- | --- | --- |
| C=CC1=C(C(=O)O)N2C(=O)[C@@H](NC(=O)/C(=N\O)c3csc(N)n3)[C@H]2SC1 [cefdinir, Cefdinir] | < 64 | 0.0564 | 0.6975 | above 90% | 99.16 | 10^7 CFU/ml | – | – | – | – |
| Cn1nnc(-c2ccc(-c3ccc(N4C[C@H](COP(=O)(O)O)OC4=O)cc3F)cn2)n1 [tedizolid phosphate, Tedizolid Phosphate] | – | – | – | – | – | – | > 40 | higher levels of ATP | 18.43±4.42 | biofilm was eliminated |
